The results in this text go back to patent publication US20240208961A1, “EIF4E INHIBITORS AND USES THEREOF” (PIC Therapeutics, Inc., priority 2022, published 2024).

Structures are written as SMILES.

One test concerns MM.1S cells. Put plainly: 5 day viability assay in MM.1S cells, I-11 and dexamethasone (Example 7). It is filed as cell-based. The method, then:
(§1) Compound I-11 was studied in the context of dexamethasone combinations, which is used clinically in early Multiple Myeloma prior to the emergence of steroid resistance and is a common backbone therapy. The MM.1S cell line is a steroid sensitive line, and the MM.1R line is the corresponding cell line which has been driven to steroid resistance. The procedure for these studies was as follows:
(§2) Day 1: Cell Seeding and Compound Dosing
(§3) • Cells were seeded 2×10^5 in 96-well cell culture treated tissue culture plates: 87.5 μL/well; MM.1 S and MM.1R • A 5-fold serial dilution of each compound in DMSO (0-25 mM) was prepared in compound storage plates (stored at −80° C. if not to be used immediately). An 8-point curve was used for compound I-11, and a 6-point curve was used for dexamethasone (0-25 mM). • Cells were rinsed with 1% FBS Media and replaced with 87.5 μL media prior to dosing. • DMSO compound dilution series was diluted in 1% FBS media—2 μL compound in 123 μL media to give a 16× final concentration. Dosing across the plate columns 1-12 (compound I-11 0-400 μM), 6.25 μL 16× in media/well. Dosing down plate rows (columns 1-6 dexamethasone 0-400 μM), 6.25 μL 16× compound in media per well. • Cells were dosed with 12.5 μL for both compounds, with 2 replicates of dosing matrix per 96-well plate. Final volume cells and compound was 100 μL/well. • Media blank 100 μL/well×8 was set up. • All plates were incubated at 37° C.
(§4) Day 6: 5 Day Viability Assay
(§5) • Alamar Blue viability reagent was added (10 μL per well) and incubated for 3 hours at 37° C. prior to fluorescence detection (Ex560 nm/Em590 nm) on a Varioskan Lux multimode plate reader.

For the next test, the system named is MM.1R cells. Put plainly: 5 day viability assay in MM.1R cells, I-11 and dexamethasone (Example 7). The format is cell-based. The procedure: as §1, §2, §3, §4, §5
The next test relates to ZR-75-1 tumor. Put plainly: ZR-75-1 subQ CDX model. The format is in vivo. To be noted: female BALB/c nude mice, 50 mg/kg, PO, QW, FIG. 14. The procedure:
Female BALB/c nude mice were inoculated with estrogen tablets (0.36 mg/pellet, 60 days to release) 48 hours before cell inoculation. The xenograft model was established by implantation of […] of ZR-75-1 tumor cell suspension (5×10^6 cells/mouse, with 50% Matrigel) subcutaneously into the right subaxillary of female BALB/c nude mice aged 6-8 weeks. When the average tumor volume reached 153.10 mm^3, the tumor-bearing mice were randomized into treatment groups. The groups were treated as follows: Group 1: vehicle, PO, QW; Group 2: Tamoxifen 10 mg/kg, PO, QD; Group 3: Compound I-11 50 mg/kg, PO, QW.
Cell culture: The ZR-75-1 (breast, ductal carcinoma) cell was purchased from (ATCC® CRL-1500™). The base medium for this cell line ATCC-formulated RPMI-1640 Medium. To make the complete growth medium, the base medium was supplemented with 10% heat inactivated FBS and 1% PS, maintained at 37° C. in an atmosphere containing 5% CO2 in air. The tumor cells were routinely subcultured at a ratio of 1:1.5 to 1:3 every 3-6 days. Cell concentration at harvest time was 5.39×10^7 cells/mL and cell viability was 94.3% before inoculation.
Tumor inoculation: BALB/c nude mice were used in this study. Each mouse was inoculated with estrogen tablets 48 hours before cell inoculation (0.3 mg/pellet, 60 days to release). […]

One may read the IC50 as the concentration that inhibits the measured activity by half. With `CC(C)Cc1sc(Nc2ncc(-c3cccs3)cc2C(=O)O)nc1C(C)(C)C` [Compound I-11], the concentration for half-maximal inhibition (IC50) is 0.423 µM in the test on MM.1S cells (Homo sapiens, MM1.S, 120 h, MM.1S cells (steroid sensitive), 5 days, Alamar Blue, read-out: IC50 (μM), Viability Assessment (5 Days) in MM.1S Cells) and 0.179 µM with MM.1R cells (120 h, MM.1R cells (steroid resistant), 5 days, Alamar Blue, read-out: IC50 (μM), Viability Assessment (5 Days) in MM.1R Cells). Further, the “viability of MM.1S cells” value in the test on MM.1S cells (MM.1S cells, FIG. 12) is given as “significant decreases in viability”. The “impact on viability in combination with dexamethasone” value in the test with MM.1S cells (MM.1S cells, dosing matrix I-11 x dexamethasone, FIG. 13) was “additive to dexamethasone”. For the same compound, the “viability of MM.1R cells” value in the test with MM.1R cells (MM.1R cells, FIG. 12) is listed as “significant decreases in viability”. In addition, the tumor size growth entry in the test on ZR-75-1 tumor is “reduced tumor size growth”.
